According to ChEMBL document CHEMBL5465560, “Selectivity Literature for EUbOPEN Chemogenomic Library” (2024):

Key:
[1] = biological target: Casein kinase II subunit alpha (Homo sapiens, UniProt P68400); assay: Selectivity interaction (Kinase panel (literature)) EUB0001199aCl CSNK2A1; settings: at 1 µM
[2] = biological target: Tyrosine-protein kinase SYK (Homo sapiens, UniProt P43405); assay: Selectivity interaction (KinomeScan (DiscoverX)) EUB0000666a SYK; settings: at 10 µM
[3] = biological target: Cannabinoid receptor 2 (Homo sapiens) (UniProt P34972); assay: Selectivity interaction (Eurofins CEREP Diversity Profile (receptors and ion channels)) EUB0000279b CNR2; settings: at 10 µM
[4] = biological target: T1, Ephrin type-B receptor 1 (Homo sapiens) (UniProt P54762); assay: Selectivity interaction (KinomeScan (DiscoverX)) EUB0000595a EPHB1; settings: at 10 µM
T1 sequence (whole entry): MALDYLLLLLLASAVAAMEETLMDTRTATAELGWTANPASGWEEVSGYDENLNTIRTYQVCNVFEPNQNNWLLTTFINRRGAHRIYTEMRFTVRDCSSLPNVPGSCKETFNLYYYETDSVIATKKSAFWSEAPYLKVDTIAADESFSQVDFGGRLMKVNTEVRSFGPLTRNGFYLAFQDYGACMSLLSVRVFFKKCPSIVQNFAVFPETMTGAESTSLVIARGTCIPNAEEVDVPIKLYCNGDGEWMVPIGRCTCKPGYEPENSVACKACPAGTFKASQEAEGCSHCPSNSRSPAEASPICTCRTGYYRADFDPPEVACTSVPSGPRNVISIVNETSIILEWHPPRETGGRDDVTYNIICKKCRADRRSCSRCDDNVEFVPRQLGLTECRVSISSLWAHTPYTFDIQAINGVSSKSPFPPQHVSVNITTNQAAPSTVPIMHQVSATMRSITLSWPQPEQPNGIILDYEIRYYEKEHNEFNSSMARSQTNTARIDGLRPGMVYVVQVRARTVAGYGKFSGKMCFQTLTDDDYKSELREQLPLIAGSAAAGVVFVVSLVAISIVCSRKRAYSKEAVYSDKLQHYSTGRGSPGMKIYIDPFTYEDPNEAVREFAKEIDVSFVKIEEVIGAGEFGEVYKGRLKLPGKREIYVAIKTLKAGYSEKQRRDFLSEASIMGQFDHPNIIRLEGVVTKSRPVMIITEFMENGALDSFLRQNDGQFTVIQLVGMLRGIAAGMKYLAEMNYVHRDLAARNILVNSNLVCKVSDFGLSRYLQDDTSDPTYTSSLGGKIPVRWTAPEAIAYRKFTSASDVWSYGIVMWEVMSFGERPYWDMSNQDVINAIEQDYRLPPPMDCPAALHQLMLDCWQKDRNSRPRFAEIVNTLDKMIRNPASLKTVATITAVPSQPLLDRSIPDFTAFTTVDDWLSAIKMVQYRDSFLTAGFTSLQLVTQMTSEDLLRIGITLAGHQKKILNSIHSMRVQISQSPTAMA

[5] = biological target: Serine/threonine-protein kinase 38-like (Homo sapiens) (UniProt Q9Y2H1); assay: Selectivity interaction (KinomeScan (DiscoverX)) EUB0000595a STK38L; settings: at 10 µM
[6] = biological target: Tyrosine-protein kinase HCK (Homo sapiens) (UniProt P08631); assay: Selectivity interaction (KinomeScan (DiscoverX)) EUB0000092b HCK; settings: at 10 µM
[7] = biological target: SRSF protein kinase 3 (Homo sapiens) (UniProt Q9UPE1); assay: Selectivity interaction (KinomeScan (DiscoverX)) EUB0000045b SRPK3
[8] = biological target: T2, Kinase suppressor of Ras 1 (Homo sapiens) (UniProt Q8IVT5); assay: Selectivity interaction (ActivX KiNativ screen (ex vivo kinase selectivity in human PBMCs)) EUB0001619a KSR1; format: cell-based; settings: PBMC, at 1 µM
T2 sequence (whole entry): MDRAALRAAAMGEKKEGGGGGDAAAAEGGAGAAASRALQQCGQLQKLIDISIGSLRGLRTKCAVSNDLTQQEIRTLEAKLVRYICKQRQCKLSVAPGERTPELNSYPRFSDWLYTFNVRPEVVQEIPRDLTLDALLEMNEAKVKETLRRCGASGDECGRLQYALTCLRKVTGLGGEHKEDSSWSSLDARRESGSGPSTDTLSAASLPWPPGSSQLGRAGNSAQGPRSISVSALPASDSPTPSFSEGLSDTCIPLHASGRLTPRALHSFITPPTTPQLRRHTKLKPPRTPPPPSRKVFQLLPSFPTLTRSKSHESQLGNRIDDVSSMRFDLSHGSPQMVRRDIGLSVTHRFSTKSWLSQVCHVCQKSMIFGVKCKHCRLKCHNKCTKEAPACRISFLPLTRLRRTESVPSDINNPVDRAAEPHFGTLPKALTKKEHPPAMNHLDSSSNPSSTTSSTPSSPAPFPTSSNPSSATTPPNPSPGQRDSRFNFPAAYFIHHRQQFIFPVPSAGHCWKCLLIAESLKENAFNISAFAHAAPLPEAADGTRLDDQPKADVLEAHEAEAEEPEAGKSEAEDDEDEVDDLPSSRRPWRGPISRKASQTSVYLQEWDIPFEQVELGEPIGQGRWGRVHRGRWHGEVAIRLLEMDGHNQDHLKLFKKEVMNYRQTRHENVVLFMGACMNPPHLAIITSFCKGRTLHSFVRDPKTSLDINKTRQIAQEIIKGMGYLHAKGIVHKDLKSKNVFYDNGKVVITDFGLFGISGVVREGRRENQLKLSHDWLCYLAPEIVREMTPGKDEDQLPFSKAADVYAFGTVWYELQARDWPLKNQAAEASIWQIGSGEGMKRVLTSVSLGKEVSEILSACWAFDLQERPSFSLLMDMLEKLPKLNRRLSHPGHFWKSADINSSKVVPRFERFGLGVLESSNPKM

Chain of SRSF protein kinase 3 (Homo sapiens) (Q9UPE1 whole entry): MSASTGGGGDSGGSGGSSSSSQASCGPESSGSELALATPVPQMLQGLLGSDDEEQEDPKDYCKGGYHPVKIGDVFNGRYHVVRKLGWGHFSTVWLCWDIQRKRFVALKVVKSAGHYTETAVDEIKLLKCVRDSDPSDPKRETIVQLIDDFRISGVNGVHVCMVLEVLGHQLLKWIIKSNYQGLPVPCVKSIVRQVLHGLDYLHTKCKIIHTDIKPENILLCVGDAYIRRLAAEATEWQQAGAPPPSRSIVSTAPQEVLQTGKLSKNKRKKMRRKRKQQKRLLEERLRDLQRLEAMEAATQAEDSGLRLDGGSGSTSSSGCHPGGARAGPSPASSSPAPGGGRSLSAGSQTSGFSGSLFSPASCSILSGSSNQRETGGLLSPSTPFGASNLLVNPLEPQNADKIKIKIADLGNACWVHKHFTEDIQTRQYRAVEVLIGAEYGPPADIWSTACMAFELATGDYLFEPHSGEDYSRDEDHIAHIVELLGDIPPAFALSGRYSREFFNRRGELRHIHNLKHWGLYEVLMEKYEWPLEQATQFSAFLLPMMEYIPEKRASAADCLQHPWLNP
Chain of Serine/threonine-protein kinase 38-like (Homo sapiens) (Q9Y2H1 2-464 limits assumed): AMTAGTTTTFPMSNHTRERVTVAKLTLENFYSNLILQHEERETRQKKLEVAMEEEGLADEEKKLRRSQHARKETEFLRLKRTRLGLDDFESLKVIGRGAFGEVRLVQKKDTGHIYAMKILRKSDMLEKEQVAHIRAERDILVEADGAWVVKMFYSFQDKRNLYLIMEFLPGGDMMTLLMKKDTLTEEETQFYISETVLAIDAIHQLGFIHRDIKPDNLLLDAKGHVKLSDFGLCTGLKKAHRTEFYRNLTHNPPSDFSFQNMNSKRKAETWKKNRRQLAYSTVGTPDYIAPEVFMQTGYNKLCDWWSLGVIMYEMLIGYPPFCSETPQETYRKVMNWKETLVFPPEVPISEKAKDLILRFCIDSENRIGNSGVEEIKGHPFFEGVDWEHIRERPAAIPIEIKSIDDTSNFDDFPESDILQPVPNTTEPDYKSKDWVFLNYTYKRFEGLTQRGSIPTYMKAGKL
Chain of Cannabinoid receptor 2 (Homo sapiens) (P34972 whole entry): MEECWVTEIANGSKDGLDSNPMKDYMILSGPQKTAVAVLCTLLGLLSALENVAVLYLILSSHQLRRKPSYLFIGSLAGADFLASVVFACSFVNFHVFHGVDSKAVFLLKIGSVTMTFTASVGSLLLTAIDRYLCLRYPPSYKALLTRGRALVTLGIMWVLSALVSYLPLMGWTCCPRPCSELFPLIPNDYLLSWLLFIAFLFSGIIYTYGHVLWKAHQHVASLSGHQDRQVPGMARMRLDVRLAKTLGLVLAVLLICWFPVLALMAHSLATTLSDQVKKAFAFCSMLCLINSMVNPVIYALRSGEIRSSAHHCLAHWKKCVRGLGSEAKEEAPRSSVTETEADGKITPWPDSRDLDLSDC
Chain of Casein kinase II subunit alpha (P68400 whole entry, looked up): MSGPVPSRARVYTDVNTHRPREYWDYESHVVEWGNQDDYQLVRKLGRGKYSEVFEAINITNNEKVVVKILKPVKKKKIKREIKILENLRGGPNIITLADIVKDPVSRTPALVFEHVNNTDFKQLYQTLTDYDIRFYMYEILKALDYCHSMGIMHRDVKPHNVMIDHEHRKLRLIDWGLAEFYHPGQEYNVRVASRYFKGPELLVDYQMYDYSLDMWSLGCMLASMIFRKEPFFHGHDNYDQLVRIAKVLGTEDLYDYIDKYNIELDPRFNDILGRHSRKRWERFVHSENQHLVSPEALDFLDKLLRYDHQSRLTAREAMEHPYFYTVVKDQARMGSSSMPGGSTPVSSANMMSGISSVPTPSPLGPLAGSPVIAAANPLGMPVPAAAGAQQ
Chain of Tyrosine-protein kinase HCK (Homo sapiens) (P08631 2-526 limits assumed): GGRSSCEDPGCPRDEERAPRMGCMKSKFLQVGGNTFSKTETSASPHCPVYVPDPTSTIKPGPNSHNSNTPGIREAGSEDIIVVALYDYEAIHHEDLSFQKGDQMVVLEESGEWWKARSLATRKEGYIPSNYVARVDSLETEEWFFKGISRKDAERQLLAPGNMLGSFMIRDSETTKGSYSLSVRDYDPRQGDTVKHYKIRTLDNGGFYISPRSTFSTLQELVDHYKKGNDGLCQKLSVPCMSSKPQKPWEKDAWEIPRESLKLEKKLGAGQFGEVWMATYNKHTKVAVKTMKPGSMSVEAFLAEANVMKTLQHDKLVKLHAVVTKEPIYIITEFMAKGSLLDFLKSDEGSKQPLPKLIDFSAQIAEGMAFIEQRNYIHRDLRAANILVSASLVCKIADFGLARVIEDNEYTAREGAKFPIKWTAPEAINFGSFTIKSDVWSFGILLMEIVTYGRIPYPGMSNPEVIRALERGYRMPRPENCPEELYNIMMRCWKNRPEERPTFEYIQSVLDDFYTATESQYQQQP

Work on `CN1Cc2nccc(-c3cn(C)nc3-c3ccc(F)cc3)c2C1=O` yielded a % of inhibition [1] of -3%.
With `O=C(NOC[C@H](O)CO)c1ccc(F)c(F)c1Nc1ccc(I)cc1F` the % of control [2] was 100%.
Work on `CC(=O)c1cc(-c2ccccc2OCC2CC2)c2ncccn12` yielded a % of control [3] of 107%.
`COCC(=O)NC/C=C/c1ccc2ncnc(Nc3ccc(Oc4ccc(C)nc4)c(C)c3)c2c1` [CP-724714] was tested, and the % of control [4] was 100% and the % of control [5] was 100%.
`CCC(=O)N1CCN(c2ccc(-n3c(=O)ccc4cnc5ccc(-c6cnc7ccccc7c6)cc5c43)cc2C(F)(F)F)CC1` gave a % of control [6] of 77%.
`C=CC(=O)Nc1cc(-n2c(=O)ccc3cnc4ccc(-c5ccc(NS(C)(=O)=O)cc5)cc4c32)ccc1C` was tested, and the % of control ([7]; at 1 µM) was 100% and the % of control ([7]; at 10 µM) was 67%.
`N#Cc1cccc(-c2c[nH]c3ncnc(N4CCOCC4)c23)c1` gave a % of inhibition [8] of 12%.
